Measurements taken from ChEMBL document CHEMBL4251615, “Discovery of anilino-furo[2,3-d]pyrimidine derivatives as dual inhibitors of EGFR/HER2 tyrosine kinase and their anticancer activity” (Eur J Med Chem, 2018).

How the values were obtained:
[1] = system: HOP-92; test: Growth inhibition of human HOP92 cells assessed as cell growth at 10 uM incubated for 48 hrs by sulforhodamine B assay relative to control; assay type: functional; conditions: HOP-92, 48 h, read-out: Activity
[2] = system: OVCAR-4; test: Growth inhibition of human OVCAR4 cells assessed as cell growth at 10 uM incubated for 48 hrs by sulforhodamine B assay relative to control; assay type: functional; conditions: OVCAR-4, 48 h, read-out: Activity
[3] = system: BT-549; test: Growth inhibition of human BT549 cells assessed as cell growth at 10 uM incubated for 48 hrs by sulforhodamine B assay relative to control; assay type: functional; conditions: BT-549, 48 h, read-out: Activity
[4] = system: SK-MEL-28; test: Growth inhibition of human SK-MEL-28 cells assessed as cell growth at 10 uM incubated for 48 hrs by sulforhodamine B assay relative to control; assay type: functional; conditions: SK-MEL-28, 48 h, read-out: Activity
[5] = system: HCT-15; test: Growth inhibition of human HCT15 cells assessed as cell growth at 10 uM incubated for 48 hrs by sulforhodamine B assay relative to control; assay type: functional; conditions: HCT-15, 48 h, read-out: Activity
[6] = system: DU-145; test: Growth inhibition of human DU145 cells assessed as cell growth at 10 uM incubated for 48 hrs by sulforhodamine B assay relative to control; assay type: functional; conditions: DU-145, 48 h, read-out: Activity
[7] = system: MDA-MB-231; test: Growth inhibition of human MDA-MB-231 cells assessed as cell growth at 10 uM incubated for 48 hrs by sulforhodamine B assay relative to control; assay type: functional; conditions: MDA-MB-231, 48 h, read-out: Activity
[8] = system: U-251; test: Growth inhibition of human U251 cells assessed as cell growth at 10 uM incubated for 48 hrs by sulforhodamine B assay relative to control; assay type: functional; conditions: U-251, 48 h, read-out: Activity
[9] = system: PC-3; test: Growth inhibition of human PC3 cells assessed as cell growth at 10 uM incubated for 48 hrs by sulforhodamine B assay relative to control; assay type: functional; conditions: PC-3, 48 h, read-out: Activity
[10] = system: T47D; test: Growth inhibition of human T47D cells assessed as cell growth at 10 uM incubated for 48 hrs by sulforhodamine B assay relative to control; assay type: functional; conditions: read-out: Activity
[11] = system: NCI-H226; test: Growth inhibition of human NCI-H226 cells assessed as cell growth at 10 uM incubated for 48 hrs by sulforhodamine B assay relative to control; assay type: functional; conditions: NCI-H226, 48 h, read-out: Activity
[12] = system: SF-268; test: Growth inhibition of human SF268 cells assessed as cell growth at 10 uM incubated for 48 hrs by sulforhodamine B assay relative to control; assay type: functional; conditions: SF-268, 48 h, read-out: Activity
[13] = system: OVCAR-3; test: Growth inhibition of human OVCAR3 cells assessed as cell growth at 10 uM incubated for 48 hrs by sulforhodamine B assay relative to control; assay type: functional; conditions: OVCAR-3, 48 h, read-out: Activity
[14] = system: NCI-H522; test: Growth inhibition of human NCI-H522 cells assessed as cell growth at 10 uM incubated for 48 hrs by sulforhodamine B assay relative to control; assay type: functional; conditions: NCI-H522, 48 h, read-out: Activity
[15] = system: TK-10; test: Growth inhibition of human TK10 cells assessed as cell growth at 10 uM incubated for 48 hrs by sulforhodamine B assay relative to control; assay type: functional; conditions: TK-10, 48 h, read-out: Activity
[16] = system: KM12; test: Growth inhibition of human KM12 cells assessed as cell growth at 10 uM incubated for 48 hrs by sulforhodamine B assay relative to control; assay type: functional; conditions: KM12, 48 h, read-out: Activity
[17] = system: Malme-3M; test: Growth inhibition of human MALME-3M cells assessed as cell growth at 10 uM incubated for 48 hrs by sulforhodamine B assay relative to control; assay type: functional; conditions: read-out: Activity
[18] = system: CCRF-CEM; test: Growth inhibition of human CCRF-CEM cells assessed as cell growth at 10 uM incubated for 48 hrs by sulforhodamine B assay relative to control; assay type: functional; conditions: read-out: Activity
[19] = system: SF-539; test: Growth inhibition of human SF539 cells assessed as cell growth at 10 uM incubated for 48 hrs by sulforhodamine B assay relative to control; assay type: functional; conditions: SF-539, 48 h, read-out: Activity
[20] = system: MDA-MB-468; test: Growth inhibition of human MDA-MB-468 cells assessed as cell growth at 10 uM incubated for 48 hrs by sulforhodamine B assay relative to control; assay type: functional; conditions: MDA-MB-468, 48 h, read-out: Activity
[21] = system: 786-0; test: Growth inhibition of human 786-0 cells assessed as cell growth at 10 uM incubated for 48 hrs by sulforhodamine B assay relative to control; assay type: functional; conditions: 786-0, 48 h, read-out: Activity
[22] = system: SNB-75; test: Growth inhibition of human SNB75 cells assessed as cell growth at 10 uM incubated for 48 hrs by sulforhodamine B assay relative to control; assay type: functional; conditions: SNB-75, 48 h, read-out: Activity
[23] = system: LOX IMVI; test: Growth inhibition of human LOXIMVI cells assessed as cell growth at 10 uM incubated for 48 hrs by sulforhodamine B assay relative to control; assay type: functional; conditions: read-out: Activity
[24] = system: HOP-62; test: Growth inhibition of human HOP62 cells assessed as cell growth at 10 uM incubated for 48 hrs by sulforhodamine B assay relative to control; assay type: functional; conditions: HOP-62, 48 h, read-out: Activity
[25] = system: COLO 205; test: Growth inhibition of human COLO205 cells assessed as cell growth at 10 uM incubated for 48 hrs by sulforhodamine B assay relative to control; assay type: functional; conditions: COLO 205, 48 h, read-out: Activity
[26] = target: Receptor tyrosine-protein kinase erbB-2 (Homo sapiens) (UniProt P04626); test: Inhibition of recombinant human N-terminal GST-tagged HER2 (679 to 1255 residues) expressed in baculovirus infected Sf9 cells at 10 uM using poly[Glu:Tyr] (4:1) as substrate after 40 mins by Kinase-Glo plus luminescence assay relative to control
[27] = system: NCI-H460; test: Growth inhibition of human NCI-H460 cells assessed as cell growth at 10 uM incubated for 48 hrs by sulforhodamine B assay relative to control; assay type: functional; conditions: NCI-H460, 48 h, read-out: Activity

Receptor tyrosine-protein kinase erbB-2 (Homo sapiens), sequence (P04626 whole entry, the tested form may be a part): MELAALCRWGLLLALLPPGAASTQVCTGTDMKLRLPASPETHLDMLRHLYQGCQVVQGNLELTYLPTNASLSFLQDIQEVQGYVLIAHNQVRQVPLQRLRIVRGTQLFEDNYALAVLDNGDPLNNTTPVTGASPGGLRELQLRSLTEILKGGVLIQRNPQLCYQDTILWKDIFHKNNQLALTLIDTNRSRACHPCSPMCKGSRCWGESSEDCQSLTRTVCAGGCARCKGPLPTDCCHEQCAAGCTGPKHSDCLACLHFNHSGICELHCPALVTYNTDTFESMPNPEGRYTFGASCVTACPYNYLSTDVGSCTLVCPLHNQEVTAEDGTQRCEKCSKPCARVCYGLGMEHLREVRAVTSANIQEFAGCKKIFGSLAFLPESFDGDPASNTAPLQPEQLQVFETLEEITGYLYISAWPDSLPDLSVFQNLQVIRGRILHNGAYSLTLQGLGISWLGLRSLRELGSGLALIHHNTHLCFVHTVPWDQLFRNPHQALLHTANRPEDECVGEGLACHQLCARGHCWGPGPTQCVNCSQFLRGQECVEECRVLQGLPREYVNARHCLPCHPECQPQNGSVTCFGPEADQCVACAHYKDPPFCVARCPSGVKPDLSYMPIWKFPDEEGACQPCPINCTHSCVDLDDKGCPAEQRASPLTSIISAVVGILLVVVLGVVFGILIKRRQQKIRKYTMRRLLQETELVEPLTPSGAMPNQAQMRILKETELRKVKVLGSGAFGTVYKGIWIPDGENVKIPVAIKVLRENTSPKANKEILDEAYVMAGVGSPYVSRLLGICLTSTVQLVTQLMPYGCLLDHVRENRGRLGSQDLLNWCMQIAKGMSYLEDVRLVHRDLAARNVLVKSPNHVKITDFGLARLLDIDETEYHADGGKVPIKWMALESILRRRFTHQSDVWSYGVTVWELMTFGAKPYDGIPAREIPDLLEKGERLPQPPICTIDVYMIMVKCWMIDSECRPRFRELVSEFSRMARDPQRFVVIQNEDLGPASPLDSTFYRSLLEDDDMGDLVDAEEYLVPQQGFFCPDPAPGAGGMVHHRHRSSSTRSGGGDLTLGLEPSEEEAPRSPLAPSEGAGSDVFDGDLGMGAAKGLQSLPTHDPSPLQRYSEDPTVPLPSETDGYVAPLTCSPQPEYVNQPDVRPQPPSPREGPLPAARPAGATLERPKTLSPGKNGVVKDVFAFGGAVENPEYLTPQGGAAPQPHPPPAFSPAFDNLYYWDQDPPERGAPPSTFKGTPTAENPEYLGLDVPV

With `CCOC(=O)c1c(C)oc2ncnc(Nc3ccc(OCc4cccc(F)c4)cc3)c12` the growth at 10 µM [1] was 104%, the growth at 10 µM [2] was 102% and the growth at 10 µM [3] was 100%. It also gave a growth at 10 µM [4] of 96.9%, a growth at 10 µM [5] of 98.5% and a growth at 10 µM [6] of 94.9%. For the same compound, the growth at 10 µM [7] was 101%, the growth at 10 µM [8] was 96.1% and the growth at 10 µM [9] was 75%. The growth at 10 µM [10] was 91%, the growth at 10 µM [11] was 87.6% and the growth at 10 µM [12] was 98.8%. The growth at 10 µM [13] was 104%, the growth at 10 µM [14] was 85% and the growth at 10 µM [15] was 82.7%. It also gave a growth at 10 µM [16] of 92.9%, a growth at 10 µM [17] of 125% and a growth at 10 µM [18] of 91.2%. For the same compound, the growth at 10 µM [19] was 94.4%, the growth at 10 µM [20] was 90.6% and the growth at 10 µM [21] was 86.1%. It also gave a growth at 10 µM [22] of 119%, a growth at 10 µM [23] of 85.3% and a growth at 10 µM [24] of 87.8%. The growth at 10 µM [25] was 84.2%, the inhibition [26] was 19% and the growth at 10 µM [27] was 68.4%.

`Cc1oc2ncnc(Nc3ccc(OCc4cccc(F)c4)c(Cl)c3)c2c1C(=O)NCCO` was tested, and the growth at 10 µM [1] was 41.9%, the growth at 10 µM [2] was 66.9% and the growth at 10 µM [3] was 61.7%. It also gave a growth at 10 µM [4] of 50.6%, a growth at 10 µM [5] of 61.1% and a growth at 10 µM [6] of 61.7%. The growth at 10 µM [7] was 26%, the growth at 10 µM [8] was 48.1% and the growth at 10 µM [9] was 57.5%. The growth at 10 µM [10] was 34.7%, the growth at 10 µM [11] was 40.8% and the growth at 10 µM [12] was 47.2%. It also gave a growth at 10 µM [13] of 78.1%, a growth at 10 µM [14] of 27.9% and a growth at 10 µM [15] of 74.7%. The growth at 10 µM [16] was 68.9%, the growth at 10 µM [17] was 52.3% and the growth at 10 µM [18] was 89.5%. For the same compound, the growth at 10 µM [19] was 47.4%, the growth at 10 µM [20] was 57.4% and the growth at 10 µM [21] was 61.2%. It also gave a growth at 10 µM [22] of 40.5%, a growth at 10 µM [23] of 61.5% and a growth at 10 µM [24] of 51.1%. For the same compound, the growth at 10 µM [25] was 85.7%, the inhibition [26] was 6% and the growth at 10 µM [27] was 34.7%.

With `Cc1oc2ncnc(Nc3ccccc3)c2c1C(=O)NCCO` the growth at 10 µM [1] was 88.6%, the growth at 10 µM [2] was 103% and the growth at 10 µM [3] was 90.1%. The growth at 10 µM [4] was 99%, the growth at 10 µM [5] was 98% and the growth at 10 µM [6] was 105%. For the same compound, the growth at 10 µM [7] was 75%, the growth at 10 µM [8] was 102% and the growth at 10 µM [9] was 107%. For the same compound, the growth at 10 µM [10] was 99.4%, the growth at 10 µM [11] was 106% and the growth at 10 µM [12] was 99.8%. For the same compound, the growth at 10 µM [13] was 102%, the growth at 10 µM [14] was 96.6% and the growth at 10 µM [15] was 122%. The growth at 10 µM [16] was 95.2%, the growth at 10 µM [17] was 107% and the growth at 10 µM [18] was 97.4%. The growth at 10 µM [19] was 88.6%, the growth at 10 µM [20] was 109% and the growth at 10 µM [21] was 98.7%. It also gave a growth at 10 µM [22] of 90.7%, a growth at 10 µM [23] of 95.4% and a growth at 10 µM [24] of 99%. It also gave a growth at 10 µM [25] of 100% and a growth at 10 µM [27] of 98.6%.

`CCOC(=O)c1c(C)oc2ncnc(Nc3cccc(F)c3)c12` gave a growth at 10 µM [1] of 88.3%, a growth at 10 µM [2] of 108% and a growth at 10 µM [3] of 94.2%. For the same compound, the growth at 10 µM [4] was 98.2%, the growth at 10 µM [5] was 95.3% and the growth at 10 µM [6] was 99%. It also gave a growth at 10 µM [7] of 91.7%, a growth at 10 µM [8] of 106% and a growth at 10 µM [9] of 94.7%. The growth at 10 µM [10] was 92.7%, the growth at 10 µM [11] was 101% and the growth at 10 µM [12] was 102%. The growth at 10 µM [13] was 108%, the growth at 10 µM [14] was 94.3% and the growth at 10 µM [15] was 95.9%. It also gave a growth at 10 µM [16] of 100%, a growth at 10 µM [17] of 131% and a growth at 10 µM [18] of 98.8%. The growth at 10 µM [19] was 99.4%, the growth at 10 µM [20] was 96.5% and the growth at 10 µM [21] was 95.7%. The growth at 10 µM [22] was 107%, the growth at 10 µM [23] was 105% and the growth at 10 µM [24] was 101%. The growth at 10 µM [25] was 104% and the growth at 10 µM [27] was 101%.
